These are literature values, as cited in patent US20090298802A1, “Pharmaceutical Compositions” (priority 2005, published 2009).

In one data set the test system is guinea-pig model of COPD. Conditions: COPD induced by cigarette smoke exposure.
Another data set has as its system patients with COPD. Conditions: 516 patients with COPD, after 26 weeks of dosing, versus placebo recipients.

Take `CCOc1ccc(-c2nc(-c3cccc(C(=O)O)n3)cs2)cc1OCC` [Tetomilast]: in the data set on guinea-pig model of COPD, the neutrophilia entry is on record as “improvements” and the specific airway resistance entry is “improvements”.

`O=C(Nc1c(Cl)cncc1Cl)c1ccc(OC(F)F)c(OCC2CC2)c1` [Roflumilast]: in the data set with patients with COPD, the tolerability profile entry is given as “equivalent to that seen in placebo recipients”.
